From PubChem BioAssay (NCI)
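Exposure lasted 48 hours, with cells grown in 96-well plates and compounds tested at five concentrations. Here, GI50 denotes the concentration required for 50% inhibition of growth. TGI: concentration producing complete growth inhibition.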

Columns and labels:
Assay in all cases: NCI tumour cell line growth inhibition, 48 h
786-0 renal = test system: 786-0 renal
A498 renal = test system: A498 renal
A549 NSCLC = test system: A549 NSCLC
ACHN renal = test system: ACHN renal
BT-549 breast = test system: BT-549 breast
CAKI-1 renal = test system: CAKI-1 renal
CCRF-CEM leukemia = test system: CCRF-CEM leukemia
COLO 205 colon = test system: COLO 205 colon
DU-145 prostate = test system: DU-145 prostate
EKVX NSCLC = test system: EKVX NSCLC
HCC-2998 colon = test system: HCC-2998 colon
HCT-116 colon = test system: HCT-116 colon
HCT-15 colon = test system: HCT-15 colon
HL-60(TB) leukemia = test system: HL-60(TB) leukemia
HOP-62 NSCLC = test system: HOP-62 NSCLC
HOP-92 NSCLC = test system: HOP-92 NSCLC
HS 578T breast = test system: HS 578T breast
HT29 colon = test system: HT29 colon
IGROV1 ovarian = test system: IGROV1 ovarian
K-562 leukemia = test system: K-562 leukemia
KM12 colon = test system: KM12 colon
LOX IMVI melanoma = test system: LOX IMVI melanoma
M14 melanoma = test system: M14 melanoma
MALME-3M melanoma = test system: MALME-3M melanoma
MCF7 breast = test system: MCF7 breast
MDA-MB-231 breast = test system: MDA-MB-231 breast
MDA-MB-435 = test system: MDA-MB-435
MOLT-4 leukemia = test system: MOLT-4 leukemia
NCI-H226 lung = test system: NCI-H226 lung
NCI-H23 lung = test system: NCI-H23 lung
NCI-H460 lung = test system: NCI-H460 lung
NCI-H522 lung = test system: NCI-H522 lung
NCI/ADR-RES ovarian = test system: NCI/ADR-RES ovarian
OVCAR-3 ovarian = test system: OVCAR-3 ovarian
OVCAR-4 ovarian = test system: OVCAR-4 ovarian
OVCAR-5 ovarian = test system: OVCAR-5 ovarian
OVCAR-8 ovarian = test system: OVCAR-8 ovarian
PC-3 prostate = test system: PC-3 prostate
RPMI-8226 leukemia = test system: RPMI-8226 leukemia
RXF 393 renal = test system: RXF 393 renal
SF-268 CNS = test system: SF-268 CNS
SF-295 CNS = test system: SF-295 CNS
SF-539 CNS = test system: SF-539 CNS
SK-MEL-2 melanoma = test system: SK-MEL-2 melanoma
SK-MEL-28 melanoma = test system: SK-MEL-28 melanoma
SK-MEL-5 melanoma = test system: SK-MEL-5 melanoma
SK-OV-3 ovarian = test system: SK-OV-3 ovarian
SN12C renal = test system: SN12C renal
SNB-19 CNS = test system: SNB-19 CNS
SNB-75 CNS = test system: SNB-75 CNS
SR leukemia = test system: SR leukemia
SW-620 colon = test system: SW-620 colon
T-47D breast = test system: T-47D breast
TK-10 renal = test system: TK-10 renal
U251 CNS = test system: U251 CNS
UACC-257 melanoma = test system: UACC-257 melanoma
UACC-62 melanoma = test system: UACC-62 melanoma
UO-31 renal = test system: UO-31 renal

Compound: CC(=Nc1ccc(S(N)(=O)=O)cc1)c1c(O)[nH]c2ccccc12
- GI50 (786-0 renal): > 25 µM
- TGI (786-0 renal): > 25 µM
- GI50 (A498 renal): > 25 µM
- TGI (A498 renal): > 25 µM
- GI50 (A549 NSCLC): > 25 µM
- TGI (A549 NSCLC): > 25 µM
- GI50 (ACHN renal): > 25 µM
- TGI (ACHN renal): > 25 µM
- GI50 (BT-549 breast): > 25 µM
- TGI (BT-549 breast): > 25 µM
- GI50 (CAKI-1 renal): 17.1 µM
- TGI (CAKI-1 renal): > 25 µM
- GI50 (CCRF-CEM leukemia): > 25 µM
- TGI (CCRF-CEM leukemia): > 25 µM
- GI50 (COLO 205 colon): > 16 µM
- TGI (COLO 205 colon): > 25 µM
- GI50 (DU-145 prostate): > 25 µM
- TGI (DU-145 prostate): > 25 µM
- GI50 (EKVX NSCLC): > 25 µM
- TGI (EKVX NSCLC): > 25 µM
- GI50 (HCC-2998 colon): > 25 µM
- TGI (HCC-2998 colon): > 25 µM
- GI50 (HCT-116 colon): > 22.8 µM
- TGI (HCT-116 colon): > 25 µM
- GI50 (HCT-15 colon): > 25 µM
- TGI (HCT-15 colon): > 25 µM
- GI50 (HL-60(TB) leukemia): > 25 µM
- TGI (HL-60(TB) leukemia): > 25 µM
- GI50 (HOP-62 NSCLC): > 14.5 µM
- TGI (HOP-62 NSCLC): > 25 µM
- GI50 (HOP-92 NSCLC): > 25 µM
- TGI (HOP-92 NSCLC): > 25 µM
- GI50 (HS 578T breast): > 25 µM
- TGI (HS 578T breast): > 25 µM
- GI50 (HT29 colon): > 25 µM
- TGI (HT29 colon): > 25 µM
- GI50 (IGROV1 ovarian): > 25 µM
- TGI (IGROV1 ovarian): > 25 µM
- GI50 (K-562 leukemia): > 25 µM
- TGI (K-562 leukemia): > 25 µM
- GI50 (KM12 colon): 0.872 µM
- TGI (KM12 colon): > 25 µM
- GI50 (LOX IMVI melanoma): > 25 µM
- TGI (LOX IMVI melanoma): > 25 µM
- GI50 (M14 melanoma): > 25 µM
- TGI (M14 melanoma): > 25 µM
- GI50 (MALME-3M melanoma): > 25 µM
- TGI (MALME-3M melanoma): > 25 µM
- GI50 (MCF7 breast): > 17.5 µM
- TGI (MCF7 breast): > 25 µM
- GI50 (MDA-MB-231 breast): > 25 µM
- TGI (MDA-MB-231 breast): > 25 µM
- GI50 (MDA-MB-435): > 25 µM
- TGI (MDA-MB-435): > 25 µM
- GI50 (MOLT-4 leukemia): > 25 µM
- TGI (MOLT-4 leukemia): > 25 µM
- GI50 (NCI-H226 lung): > 23.6 µM
- TGI (NCI-H226 lung): > 25 µM
- GI50 (NCI-H23 lung): > 25 µM
- TGI (NCI-H23 lung): > 25 µM
- GI50 (NCI-H460 lung): > 23.9 µM
- TGI (NCI-H460 lung): > 25 µM
- GI50 (NCI-H522 lung): > 25 µM
- TGI (NCI-H522 lung): > 25 µM
- GI50 (NCI/ADR-RES ovarian): > 25 µM
- TGI (NCI/ADR-RES ovarian): > 25 µM
- GI50 (OVCAR-3 ovarian): > 25 µM
- TGI (OVCAR-3 ovarian): > 25 µM
- GI50 (OVCAR-4 ovarian): > 25 µM
- TGI (OVCAR-4 ovarian): > 25 µM
- GI50 (OVCAR-5 ovarian): > 25 µM
- TGI (OVCAR-5 ovarian): > 25 µM
- GI50 (OVCAR-8 ovarian): > 25 µM
- TGI (OVCAR-8 ovarian): > 25 µM
- GI50 (PC-3 prostate): > 25 µM
- TGI (PC-3 prostate): > 25 µM
- GI50 (RPMI-8226 leukemia): > 25 µM
- TGI (RPMI-8226 leukemia): > 25 µM
- GI50 (RXF 393 renal): > 25 µM
- TGI (RXF 393 renal): > 25 µM
- GI50 (SF-268 CNS): > 25 µM
- TGI (SF-268 CNS): > 25 µM
- GI50 (SF-295 CNS): > 25 µM
- TGI (SF-295 CNS): > 25 µM
- GI50 (SF-539 CNS): > 25 µM
- TGI (SF-539 CNS): > 25 µM
- GI50 (SK-MEL-2 melanoma): > 25 µM
- TGI (SK-MEL-2 melanoma): > 25 µM
- GI50 (SK-MEL-28 melanoma): > 25 µM
- TGI (SK-MEL-28 melanoma): > 25 µM
- GI50 (SK-MEL-5 melanoma): > 25 µM
- TGI (SK-MEL-5 melanoma): > 25 µM
- GI50 (SK-OV-3 ovarian): > 12.2 µM
- TGI (SK-OV-3 ovarian): > 25 µM
- GI50 (SN12C renal): > 25 µM
- TGI (SN12C renal): > 25 µM
- GI50 (SNB-19 CNS): > 25 µM
- TGI (SNB-19 CNS): > 25 µM
- GI50 (SNB-75 CNS): > 25 µM
- TGI (SNB-75 CNS): > 25 µM
- GI50 (SR leukemia): > 25 µM
- TGI (SR leukemia): > 25 µM
- GI50 (SW-620 colon): > 18.5 µM
- TGI (SW-620 colon): > 25 µM
- GI50 (T-47D breast): > 8.37 µM
- TGI (T-47D breast): > 25 µM
- GI50 (TK-10 renal): > 25 µM
- TGI (TK-10 renal): > 25 µM
- GI50 (U251 CNS): > 25 µM
- TGI (U251 CNS): > 25 µM
- GI50 (UACC-257 melanoma): > 25 µM
- TGI (UACC-257 melanoma): > 25 µM
- GI50 (UACC-62 melanoma): > 25 µM
- TGI (UACC-62 melanoma): > 25 µM
- GI50 (UO-31 renal): 7.37 µM
- TGI (UO-31 renal): > 25 µM
